Experimental findings from ChEMBL document CHEMBL1201862, “PubChem BioAssay data set” (2004) are described below.

SMILES strings stand for the structures.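 Cultured in 96-well plates, cells were exposed to test compound for 48 hours across five concentrations. The concentration for 50% growth inhibition is given as GI50.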 Activity calls are given as the source filed them. Rule as the data show it: active = GI50 up to about 1.1 µM and inactive = higher. A value given as a limit tells only on which side of the number the result lay.

Test in all cases: growth of human tumour cells (NCI), 48 h
The test system of assay [1] is RPMI-8226.
The test system of assay [2] is HOP-92.
Assay [3] deals with U-251.
The subject of assay [4] is SF-539.
Assay [5] deals with CCRF-CEM.
In assay [6] the test system is COLO 205.
Assay [7] has as its system HOP-62.
Assay [8] deals with SN12C.
The test system of assay [9] is RXF 393.
Assay [10] deals with OVCAR-5.
Assay [11] relates to NCI-H522.
Assay [12] concerns KM12.
The subject of assay [13] is HL-60.
Assay [14] relates to SF-268.
Assay [15] has as its system K562.
The subject of assay [16] is SF-295.
Assay [17] concerns A549.
Assay [18] concerns SW-620.
Assay [19] concerns M14.
In assay [20] the test system is HCT-15.

In the case of `N#C/C(=C/c1ccc[nH]1)P(=O)(O)O`, the GI50 in [1], in assay [2], in [3], in [4], in [5] and in assay [6] was > 100 µM (inactive) in each case. Moreover, the GI50 in [7], in assay [8], in [9], in assay [10], in [11] and in assay [12] was > 100 µM (inactive) each time. The GI50 in assay [13], in assay [14], in assay [15], in assay [16], in assay [17] and in assay [18] was > 100 µM (inactive) throughout. For the same compound, the GI50 was > 100 µM (inactive) in [19] and greater than 100 µM in assay [20].

`Cc1nc2c(s/c(=N\N)n2-c2ccccc2)c(=O)[nH]1`: the GI50 in [1], in assay [2], in assay [3], in assay [4], in assay [5] and in assay [6] was > 100 µM (inactive) each time. Further, the GI50 in assay [7], in assay [8], in assay [9], in assay [10], in assay [11] and in [12] was > 100 µM (inactive) throughout. In addition, the GI50 in assay [13], in [14], in [15], in assay [16], in assay [17] and in assay [18] was > 100 µM (inactive) throughout. Moreover, the GI50 in assay [19] was > 100 µM (inactive); in [20], greater than 100 µM.

For `COc1ccc(Nc2nc(N)c(C(=O)c3cccs3)s2)cc1`, the GI50 was 5.92 µM (inactive) in [1]; 21.1 µM (inactive) in assay [2]; 7.5 µM (inactive) in assay [3]; 4.21 µM (inactive) in [4]; 3.38 µM (inactive) in assay [5]; 3.98 µM (inactive) in [6]. For the same compound, the GI50 in assay [7] is 16.9 µM (inactive); in assay [8] it was 27.5 µM (inactive); in [9], 5.55 µM (inactive); in [10], 15.8 µM (inactive); in assay [11], 5.09 µM (inactive); in [12] it was 2.99 µM (inactive). Further, the GI50 in assay [13] is 3.56 µM (inactive); in [14], 17 µM (inactive); in assay [15] it was 3.64 µM (inactive); in assay [16], 10.9 µM (inactive); in [17], 5.7 µM (inactive); in assay [18], 5.45 µM (inactive). In addition, the GI50 in assay [19] is 13.4 µM (inactive); in [20], 3.11 µM.

Regarding `O=C(NC1C(=O)NC(CCc2ccccc2)NC1=O)OCc1ccccc1` (configuration not stated), the GI50 in [1], in assay [2], in [3], in assay [4], in [5] and in assay [6] was > 100 µM (inactive) each time. Moreover, the GI50 in assay [7], in assay [8], in [9], in [10], in assay [11] and in assay [12] was > 100 µM (inactive) throughout. For the same compound, the GI50 in assay [13], in assay [14], in [15], in assay [16], in assay [17] and in assay [18] was > 100 µM (inactive) throughout. Further, the GI50 in assay [19] is > 100 µM (inactive); in [20], greater than 100 µM.

For `O=c1c2ccccc2nc(-c2ccccc2)n1NC(=S)Nc1ccccc1`, the GI50 in assay [1], in assay [2], in [3], in [4], in assay [5] and in [6] was > 100 µM (inactive) throughout. Besides, the GI50 in assay [7], in assay [8], in assay [9], in [10], in assay [11] and in assay [12] was > 100 µM (inactive) in each case. Besides, the GI50 in [13], in [14], in assay [15], in assay [16], in [17] and in assay [18] was > 100 µM (inactive) in each case. In addition, the GI50 is > 100 µM (inactive) in assay [19] and greater than 100 µM in assay [20].

For the compound `CCOC(=O)Cn1nnc2cc(Nc3c(C)[n+]([O-])c4cc(F)c(OCC)cc4[n+]3[O-])ccc21`, the GI50 was > 100 µM (inactive) in assay [1]; 13.6 µM (inactive) in assay [2]; 32.5 µM (inactive) in assay [3]; > 100 µM (inactive) in assay [4]; > 100 µM (inactive) in [5]; 27.5 µM (inactive) in assay [7]. Further, the GI50 in [9] was 31.8 µM (inactive); in assay [10], > 100 µM (inactive); in assay [11] it was > 100 µM (inactive); in assay [12], > 100 µM (inactive); in assay [13], > 100 µM (inactive); in assay [14] it was 45.8 µM (inactive). Further, the GI50 in assay [15] is 7.16 µM (inactive); in assay [16], 38.3 µM (inactive); in assay [18], > 100 µM (inactive); in [19], > 100 µM (inactive); in [20], greater than 100 µM.

`C=C1C(=O)O[C@@]23C1CC[C@@H](C)C2CC[C@@]1(C)OC31` (some centres not stated): the GI50 was 2.9 µM (inactive) in assay [1]; 8.79 µM (inactive) in [2]; 6.35 µM (inactive) in assay [3]; 3.24 µM (inactive) in assay [4]; 3.42 µM (inactive) in assay [5]; 1.86 µM (inactive) in [6]. Besides, the GI50 in [7] was 10 µM (inactive); in assay [8], 7.24 µM (inactive); in [9], 16.7 µM (inactive); in assay [10] it was 12.6 µM (inactive); in assay [11] it was 6.32 µM (inactive); in assay [12] it was 12.8 µM (inactive). The GI50 in assay [13] was 2.72 µM (inactive); in [14], 13.7 µM (inactive); in assay [15] it was 7.78 µM (inactive); in assay [16], 18.2 µM (inactive); in [17], 21.2 µM (inactive); in assay [18], 8.81 µM (inactive). Besides, the values for the GI50 in assay [19] and in [20] were 3.52 µM (inactive) and 9.33 µM, respectively.

Turning to `CC(=O)c1ccc(NCN2C(=O)c3ccccc3C2=O)cc1`, the GI50 is 66.5 µM (inactive) in assay [1]; > 100 µM (inactive) in assay [2]; > 100 µM (inactive) in [3]; > 100 µM (inactive) in [4]; > 100 µM (inactive) in [5]; > 100 µM (inactive) in [6]. Moreover, the GI50 was > 100 µM (inactive) in [7]; > 100 µM (inactive) in assay [8]; > 100 µM (inactive) in assay [9]; > 100 µM (inactive) in [10]; 97.5 µM (inactive) in assay [11]; > 100 µM (inactive) in assay [12]. Further, the GI50 in assay [13] is 36.9 µM (inactive); in assay [14], > 100 µM (inactive); in assay [15], > 100 µM (inactive); in [16], > 100 µM (inactive); in assay [17] it was > 100 µM (inactive); in [18] it was > 100 µM (inactive). Further, the GI50 in assay [19] is > 100 µM (inactive); in assay [20] it was greater than 100 µM.

As to `CCOC(=O)C1C(=O)C=C(c2cc(C)ccc2O)CC1c1cccc(Cl)c1` (configuration not stated), the GI50 in assay [1] is 18.7 µM (inactive); in assay [2], 13.5 µM (inactive); in [3], 18.5 µM (inactive); in assay [4] it was 19.6 µM (inactive); in assay [5], 19.8 µM (inactive); in [6], 18.5 µM (inactive). The GI50 in [7] was 40.2 µM (inactive); in assay [8], 27.7 µM (inactive); in [9], 19.3 µM (inactive); in assay [10], 43.7 µM (inactive); in assay [11] it was 12.4 µM (inactive); in assay [12], 16.3 µM (inactive). For the same compound, the GI50 in [13] is 25.8 µM (inactive); in assay [14] it was 22.3 µM (inactive); in assay [15], 12.9 µM (inactive); in assay [16], 23.9 µM (inactive); in assay [17] it was 19 µM (inactive); in assay [18], 29 µM (inactive). Further, the results for the GI50 in assay [19] and in assay [20] were 30.1 µM (inactive) and 3.13 µM, respectively.

Regarding `N#C/C(=C\c1cc(F)cc(F)c1)c1ccccn1`, the GI50 in assay [1] was 14.9 µM (inactive); in assay [2], 20.5 µM (inactive); in assay [3] it was 16.8 µM (inactive); in assay [4], 19.5 µM (inactive); in assay [5] it was 18.1 µM (inactive); in [6] it was > 10 µM (inactive). In addition, the GI50 is > 10 µM (inactive) in assay [7]; 24 µM (inactive) in assay [8]; 26.7 µM (inactive) in assay [9]; 28.8 µM (inactive) in assay [10]; 24.2 µM (inactive) in assay [11]; 22.1 µM (inactive) in assay [12]. Moreover, the GI50 in assay [13] was > 10 µM (inactive); in assay [14], 19.4 µM (inactive); in assay [15] it was 15.5 µM (inactive); in assay [16], 16.3 µM (inactive); in assay [17] it was 28.6 µM (inactive); in assay [18] it was > 10 µM (inactive). In addition, the GI50 in assay [19] was 25.8 µM (inactive); in [20], 15.4 µM.
